These results are taken from patent US20250361230A1, “LATS Inhibitors and Uses Thereof” (The USA, as Represented by the Secretary, Dept. of Heath …, priority 2022, published 2025).

pIC50: −log10 of the molar value.

What all share (assay type): biochemical
Experiment [1] addresses T1, LATS2 (Homo sapiens, UniProt Q9NRM7).
T1 sequence (Q9NRM7 1-1088): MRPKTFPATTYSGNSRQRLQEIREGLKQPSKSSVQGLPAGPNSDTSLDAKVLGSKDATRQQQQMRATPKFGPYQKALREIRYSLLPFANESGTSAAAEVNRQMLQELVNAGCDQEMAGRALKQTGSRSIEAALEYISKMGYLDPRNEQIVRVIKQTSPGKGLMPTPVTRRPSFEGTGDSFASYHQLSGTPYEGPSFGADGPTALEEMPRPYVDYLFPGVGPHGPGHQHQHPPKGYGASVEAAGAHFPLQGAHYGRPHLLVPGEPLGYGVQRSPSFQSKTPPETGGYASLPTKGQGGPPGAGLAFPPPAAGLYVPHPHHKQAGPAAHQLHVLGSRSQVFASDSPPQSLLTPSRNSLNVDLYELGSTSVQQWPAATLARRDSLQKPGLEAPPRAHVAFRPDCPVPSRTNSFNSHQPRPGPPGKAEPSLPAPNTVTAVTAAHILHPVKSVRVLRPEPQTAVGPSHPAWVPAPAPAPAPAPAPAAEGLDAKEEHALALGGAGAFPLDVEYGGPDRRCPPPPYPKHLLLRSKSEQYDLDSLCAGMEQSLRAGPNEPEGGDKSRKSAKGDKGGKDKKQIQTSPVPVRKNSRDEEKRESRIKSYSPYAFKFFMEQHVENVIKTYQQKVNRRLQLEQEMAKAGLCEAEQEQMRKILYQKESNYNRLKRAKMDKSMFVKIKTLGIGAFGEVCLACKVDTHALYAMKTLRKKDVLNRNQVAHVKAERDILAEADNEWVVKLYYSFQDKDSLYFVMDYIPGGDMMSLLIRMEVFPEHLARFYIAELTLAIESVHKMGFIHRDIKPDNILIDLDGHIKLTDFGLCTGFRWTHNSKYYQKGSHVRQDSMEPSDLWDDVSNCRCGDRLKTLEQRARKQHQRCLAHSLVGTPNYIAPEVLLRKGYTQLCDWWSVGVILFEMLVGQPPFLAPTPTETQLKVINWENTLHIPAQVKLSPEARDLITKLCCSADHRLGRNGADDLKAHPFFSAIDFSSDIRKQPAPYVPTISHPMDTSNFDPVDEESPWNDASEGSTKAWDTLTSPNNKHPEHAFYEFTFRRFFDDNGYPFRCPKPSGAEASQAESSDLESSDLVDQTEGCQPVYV
Description: RBC HotSpot kinase assay (33P-ATP, P81 filter-binding), LATS2. Particulars: Table 28, biochemical kinase assay; read-out: LATS2 IC50. The procedure, abridged: (§1)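 IC50 in nM was derived from 10-point, single-replicate titrations. Read-out was radiometric P81 filter binding following a 2 h room-temperature reaction with 33P-ATP, after 20 min compound preincubation.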

Experiment [2] addresses AKT (Homo sapiens, UniProt P31749). Description: RBC HotSpot kinase assay (33P-ATP, P81 filter-binding), AKT. Particulars: Table 28, biochemical kinase assay; read-out: AKT IC50. The method, boiled down:
as §1

The target of experiment [3] is T2, LATS1 (Homo sapiens, UniProt O95835).
T2 sequence (O95835 1-1130): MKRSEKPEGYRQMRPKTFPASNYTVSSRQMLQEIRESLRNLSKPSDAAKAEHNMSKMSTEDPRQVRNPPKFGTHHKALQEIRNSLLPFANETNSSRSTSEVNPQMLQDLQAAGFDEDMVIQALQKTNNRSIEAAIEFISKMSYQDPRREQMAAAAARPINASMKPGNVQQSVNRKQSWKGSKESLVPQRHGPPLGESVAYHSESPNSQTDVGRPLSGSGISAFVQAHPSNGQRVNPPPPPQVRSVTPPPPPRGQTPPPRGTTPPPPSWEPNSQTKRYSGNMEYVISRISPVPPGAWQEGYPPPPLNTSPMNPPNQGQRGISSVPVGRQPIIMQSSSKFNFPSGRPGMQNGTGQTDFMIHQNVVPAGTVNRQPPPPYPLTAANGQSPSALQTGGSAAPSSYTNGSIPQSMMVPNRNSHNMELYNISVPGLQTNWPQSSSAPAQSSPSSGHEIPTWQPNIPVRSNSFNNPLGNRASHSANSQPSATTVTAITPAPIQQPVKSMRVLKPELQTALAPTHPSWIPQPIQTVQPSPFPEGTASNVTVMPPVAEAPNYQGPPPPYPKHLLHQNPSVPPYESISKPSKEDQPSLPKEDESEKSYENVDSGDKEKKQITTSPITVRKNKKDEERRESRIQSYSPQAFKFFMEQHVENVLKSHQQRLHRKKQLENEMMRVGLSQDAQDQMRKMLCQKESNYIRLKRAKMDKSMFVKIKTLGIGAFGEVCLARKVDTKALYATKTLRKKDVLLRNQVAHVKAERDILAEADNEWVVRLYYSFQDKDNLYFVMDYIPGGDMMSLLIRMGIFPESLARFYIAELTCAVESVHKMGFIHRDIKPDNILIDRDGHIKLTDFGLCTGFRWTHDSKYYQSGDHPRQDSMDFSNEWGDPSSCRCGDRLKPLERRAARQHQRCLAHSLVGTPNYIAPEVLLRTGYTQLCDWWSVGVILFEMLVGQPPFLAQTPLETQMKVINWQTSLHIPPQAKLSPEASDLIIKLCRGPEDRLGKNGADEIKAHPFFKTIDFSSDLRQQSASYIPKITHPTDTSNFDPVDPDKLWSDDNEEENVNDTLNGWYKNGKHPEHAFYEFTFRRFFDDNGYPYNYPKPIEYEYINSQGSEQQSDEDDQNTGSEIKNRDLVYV
Nature of the experiment: RBC HotSpot kinase assay (33P-ATP, P81 filter-binding), LATS1. Particulars: Table 28, biochemical kinase assay; read-out: LATS1 IC50. The method, boiled down: as §1

AKT, sequence (P31749 whole entry): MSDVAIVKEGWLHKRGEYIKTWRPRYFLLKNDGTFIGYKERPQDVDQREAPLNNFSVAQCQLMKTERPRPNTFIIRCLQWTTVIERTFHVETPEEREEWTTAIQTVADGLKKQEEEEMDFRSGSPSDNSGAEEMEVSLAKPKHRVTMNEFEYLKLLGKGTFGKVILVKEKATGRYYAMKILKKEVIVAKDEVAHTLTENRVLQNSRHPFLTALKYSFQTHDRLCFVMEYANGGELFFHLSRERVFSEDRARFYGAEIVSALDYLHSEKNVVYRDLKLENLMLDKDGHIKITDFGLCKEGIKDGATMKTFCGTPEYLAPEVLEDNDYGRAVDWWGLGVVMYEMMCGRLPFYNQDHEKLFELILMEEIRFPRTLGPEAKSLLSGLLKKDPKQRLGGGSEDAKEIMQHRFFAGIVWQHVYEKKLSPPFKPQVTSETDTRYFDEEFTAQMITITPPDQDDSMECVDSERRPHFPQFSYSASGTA

As to `CN1CCC(O)(c2ccc(-c3ccnc4[nH]cc(Br)c34)cc2)CC1` [Compound 124, 4-(4-(3-bromo-1H-pyrrolo[2,3-b]pyridin-4-yl)phenyl)-1-methylpiperidin-4-ol], the pIC50 (usually the negative decadic logarithm of the IC50, by convention in mol/L) is 8.43 in experiment [1], 6.89 in experiment [2] and 8.24 in experiment [3].

On to `CC1CN(C)CC(C)C1(O)c1ccc(-c2ccnc3[nH]cc(Br)c23)cc1Cl` (stereo not drawn) [Compound 125, 4-(4-(3-bromo-1H-pyrrolo[2,3-b]pyridin-4-yl)-2-chlorophenyl)-1,3,5-trimethylpiperidin-4-ol], for which the negative-log IC50 (pIC50) was 8.15 in experiment [1], 6.97 in experiment [2] and 7.85 in experiment [3].

For the compound `OC1(c2ccc(-c3ccnc4[nH]cc(-c5cccnc5)c34)cc2)CCNCC1` [Compound 126, 4-(4-(3-(pyridin-3-yl)-1H-pyrrolo[2,3-b]pyridin-4-yl)phenyl)piperidin-4-ol], the pIC50 was 7.49 in experiment [1], 6.61 in experiment [2] and 8.04 in experiment [3].

As for `Cc1cncc(-c2c[nH]c3nccc(-c4ccc(C5(O)CCNCC5)cc4)c23)c1` [Compound 127, 4-(4-(3-(5-methylpyridin-3-yl)-1H-pyrrolo[2,3-b]pyridin-4-yl)phenyl)piperidin-4-ol], the pIC50 in experiment [1] was 7.40; in experiment [2] it was 5.37; in experiment [3], 7.72.

As to `CN1CCC(O)(c2ccc(-c3ccnc4[nH]cc(-c5cccnc5)c34)cc2)CC1` [Compound 128, 1-methyl-4-(4-(3-(pyridin-3-yl)-1H-pyrrolo[2,3-b]pyridin-4-yl)phenyl)piperidin-4-ol], the pIC50 in experiment [1] was 7.44; in experiment [2], 5.69; in experiment [3], 7.51.

For the compound `CC1CN(C)CC(C)C1(O)c1ccc(-c2ccnc3[nH]cc(F)c23)cc1-c1ccccc1` (stereo not drawn) [Compound 129, 4-(5-(3-fluoro-1H-pyrrolo[2,3-b]pyridin-4-yl)-[1,1′-biphenyl]-2-yl)-1,3,5-trimethylpiperidin-4-ol], the pIC50 was 6.72 in experiment [1], 6.63 in experiment [2] and 6.80 in experiment [3].

In the case of `C[C@@H]1CNC[C@H](C)C1(O)c1cnc(-c2ccnc3[nH]cc(F)c23)cc1-c1ccccc1` (stereo partly drawn) [Compound 130, (3S,5R)-4-(6-(3-fluoro-1H-pyrrolo[2,3-b]pyridin-4-yl)-4-phenylpyridin-3-yl)-3,5-dimethylpiperidin-4-ol], the pIC50 is 6.42 in experiment [1], 5.65 in experiment [2] and 6.84 in experiment [3].

`CN1CCC(O)(c2ccc(-c3ccnc4[nH]cc(F)c34)cc2)CC1` [Compound 131, 4-(4-(3-fluoro-1H-pyrrolo[2,3-b]pyridin-4-yl)phenyl)-1-methylpiperidin-4-ol]: the pIC50 in experiment [1] was 7.60; in experiment [2], 5.97; in experiment [3] it was 7.55.

Regarding `CN1CCC(O)(c2ccc(-c3ccnc4[nH]ccc34)cc2)CC1` [Compound 132, 4-(4-(1H-pyrrolo[2,3-b]pyridin-4-yl)phenyl)-1-methylpiperidin-4-ol], the pIC50 was 8.24 in experiment [1], 6.31 in experiment [2] and 8.54 in experiment [3].

`CN1[C@@H]2CC[C@H]1CC(O)(c1ccc(-c3ccnc4[nH]cc(F)c34)cc1)C2` (stereo partly drawn) [Compound 133, (1R,5S)-3-(4-(3-fluoro-1H-pyrrolo[2,3-b]pyridin-4-yl)phenyl)-8-methyl-8-azabicyclo[3.2.1]octan-3-ol]: the pIC50 in experiment [1] is 7.72; in experiment [2] it was 6.41; in experiment [3] it was 7.70.

Turning to `CN1CC2CC(C1)C2(O)c1ccc(-c2ccnc3[nH]cc(F)c23)cc1Cl` (stereo not drawn) [Compound 134, 6-(2-chloro-4-(3-fluoro-1H-pyrrolo[2,3-b]pyridin-4-yl)phenyl)-3-methyl-3-azabicyclo[3.1.1]heptan-6-ol], the pIC50 in experiment [1] is 6.94; in experiment [2], 6.10; in experiment [3], 7.36.

In the case of `Cc1nc(-c2ccnc3[nH]ccc23)ccc1C1(O)CCN(C)CC1` [Compound 135, 1-methyl-4-(2-methyl-6-(1H-pyrrolo[2,3-b]pyridin-4-yl)pyridin-3-yl)piperidin-4-ol], the pIC50 in experiment [1] is 6.17; in experiment [2], 5.10; in experiment [3], 6.13.

`CN1C[C@H]2CC[C@@H](C1)C2(O)c1ccc(-c2ccnc3[nH]cc(F)c23)cc1Cl` (stereo partly drawn) [Compound 136, (1R,5S,8s)-8-(2-chloro-4-(3-fluoro-1H-pyrrolo[2,3-b]pyridin-4-yl)phenyl)-3-methyl-3-azabicyclo[3.2.1]octan-8-ol]: the values for the pIC50 in experiment [1], in experiment [2] and in experiment [3] were 6.93, 5.97 and 7.16, respectively.

`CN1CC(O)(c2ccc(-c3ccnc4[nH]cc(F)c34)cc2Cl)C1` [Compound 137, 3-(2-chloro-4-(3-fluoro-1H-pyrrolo[2,3-b]pyridin-4-yl)phenyl)-1-methylazetidin-3-ol]: the pIC50 in experiment [1] is 6.46; in experiment [2] it was 5.93; in experiment [3], 6.97.

For `OC1(c2c(F)cc(-c3ccnc4[nH]cc(F)c34)cc2F)CC2(CN(C3COC3)C2)C1` [Compound 138, 6-(2,6-difluoro-4-(3-fluoro-1H-pyrrolo[2,3-b]pyridin-4-yl)phenyl)-2-(oxetan-3-yl)-2-azaspiro[3.3]heptan-6-ol], the pIC50 in experiment [1] was 6.93; in experiment [2], 5.57; in experiment [3], 7.18.

With `O=S1(=O)CCC(N2CC3(C2)CC(O)(c2c(F)cc(-c4ccnc5[nH]cc(F)c45)cc2F)C3)CC1` [Compound 140, 4-(6-(2,6-difluoro-4-(3-fluoro-1H-pyrrolo[2,3-b]pyridin-4-yl)phenyl)-6-hydroxy-2-azaspiro[3.3]heptan-2-yl)tetrahydro-2H-thiopyran 1,1-dioxide], the pIC50 in experiment [1] is 6.92; in experiment [2], 5.80; in experiment [3] it was 7.25.

Turning to `CC(C)(C)OC(=O)N1CCC(O)(c2ccc(-c3ccnc4[nH]ccc34)cc2)CC1` [Compound 141, tert-butyl 4-(4-(1H-pyrrolo[2,3-b]pyridin-4-yl)phenyl)-4-hydroxypiperidine-1-carboxylate], the pIC50 in experiment [1] was 6.33; in experiment [2], < 5.00; in experiment [3], 6.05.

As for `O=C([C@@H]1CCCN1)N1CCC(O)(c2ccc(-c3ccnc4[nH]cc(F)c34)cc2)CC1` [Compound 143, (S)-3-fluoro-4-(4-(4-hydroxy-1-prolylpiperidin-4-yl)phenyl)-1H-pyrrolo[2,3-b]pyridine], the values for the pIC50 in experiment [1], in experiment [2] and in experiment [3] were 7.92, 5.84 and 7.59, respectively.
